Read-outs that look alike come from different tables or passages of the source.
Tests used:
Format in all cases: cell-based
[1] = system: K. pneumoniae ATCC 700603 strain producing SHV 18 ESBL; assay: Cidal activity (bacterial count over time); details: for Bacterial count: concentrations in label
[2] = system: K. pneumoniae B 43 strain producing SHV and TEM ESBLs; assay: Cidal activity (bacterial count over time); details: concentrations in label
[3] = system: K. pneumoniae ATCC 700603 strain producing SHV 18 ESBL; assay: MIC by agar dilution (CLSI); details: Klebsiella pneumoniae
Procedure: The efficacy of compositions and methods in treating or controlling bacterial infections was studied. In a typical study, overnight grown bacterial cultures were diluted appropriately and inoculated on the agar media containing doubling dilutions of the antibiotic. Observation for growth or no growth was performed after 16-20 hours of incubation at 35±2° C. in ambient air. The overall procedure was performed as per Clinical and Laboratory Standards Institute (CLSI) recommendations (Clinical and Laboratory Standards Institute (CLSI), performance Standards for Antimicrobial Susceptibility Testing, 20th Informational Supplement, M 100-S20, Volume 30, No. 1, 2010).

[4] = Table 2, 2 hours, initial count 6.65 log CFU/ml
[5] = Table 2, 6 hours, initial count 6.65 log CFU/ml
[6] = Table 2, 8 hours, initial count 6.65 log CFU/ml
[7] = Table 3, 2 hours, initial count 7.04 log CFU/ml
[8] = Table 3, 6 hours, initial count 7.04 log CFU/ml
[9] = Table 3, 8 hours, initial count 7.04 log CFU/ml
[10] = Table 4, 2 hours, initial count 7.43 log CFU/ml
[11] = Table 4, 4 hours, initial count 7.43 log CFU/ml
[12] = Table 4, 8 hours, initial count 7.43 log CFU/ml
[13] = Table 6, 2 hours, initial count 7.27 log CFU/ml
[14] = Table 6, 4 hours, initial count 7.27 log CFU/ml
[15] = Table 6, 8 hours, initial count 7.27 log CFU/ml
[16] = Table 7, 2 hours, initial count 7.27 log CFU/ml
[17] = Table 7, 4 hours, initial count 7.27 log CFU/ml
[18] = Table 7, 8 hours, initial count 7.27 log CFU/ml
[19] = Table 5, 2 hours, initial count log 7.43 CFU/ml
[20] = Table 5, 4 hours, initial count log 7.43 CFU/ml
[21] = Table 5, 8 hours, initial count log 7.43 CFU/ml

CC1(C)S[C@@H]2[C@H](NC(=O)[C@H](N)c3ccc(O)cc3)C(=O)N2[C@H]1C(=O)O [Amoxicillin, amoxicillin]
Bacterial count [1, 4]: 7.84 Log CFU/ml
Bacterial count [1, 5]: 8.5 Log CFU/ml
Bacterial count [1, 6]: 9 Log CFU/ml
antibacterial activity (growth in presence of drug alone) ([1]; Table 2): no antibacterial activity
Bacterial count [2, 7]: 7.8 Log CFU/ml
Bacterial count [2, 8]: 8.8 Log CFU/ml
Bacterial count [2, 9]: 9 Log CFU/ml
MIC ([3]; ATCC700603, amoxicillin alone or with fixed concentration of partner(s) named in the label, read-out: MIC of Amoxicillin): > 64 µg/mL

O=C(O)[C@H]1/C(=C/CO)O[C@@H]2CC(=O)N21 [Clavulanic acid, clavulanic acid]
Bacterial count [1, 4]: 8.1 Log CFU/ml
Bacterial count [1, 5]: 8.8 Log CFU/ml
Bacterial count [1, 6]: 9 Log CFU/ml
Bacterial count [1, 10]: 8.4 Log CFU/ml
Bacterial count [1, 11]: 8.65 Log CFU/ml
Bacterial count [1, 12]: 8.9 Log CFU/ml
Bacterial count [1, 13]: 8.47 Log CFU/ml
Bacterial count [1, 14]: 9.09 Log CFU/ml
Bacterial count [1, 15]: 9.09 Log CFU/ml
Bacterial count [1, 16]: 8.47 Log CFU/ml
Bacterial count [1, 17]: 9.09 Log CFU/ml
Bacterial count [1, 18]: 9.09 Log CFU/ml
antibacterial activity (growth in presence of drug alone) ([1]; Table 2): no antibacterial activity
Bacterial count [2, 7]: 8.1 Log CFU/ml
Bacterial count [2, 8]: 8.7 Log CFU/ml
Bacterial count [2, 9]: 9 Log CFU/ml
Bacterial count [2, 19]: 8.1 Log CFU/ml
Bacterial count [2, 20]: 8.56 Log CFU/ml
Bacterial count [2, 21]: 8.85 Log CFU/ml
MIC ([3]; ATCC700603, read-out: MIC value when used alone): > 64 µg/mL

CO/N=C(\C(=O)N[C@@H]1C(=O)N2C(C(=O)O)=C(COC(N)=O)CS[C@H]12)c1ccco1 [Cefuroxime (2 mcg/ml), cefuroxime]
Bacterial count [1, 16]: 8.77 Log CFU/ml
Bacterial count [1, 17]: 8.90 Log CFU/ml
Bacterial count [1, 18]: 9 Log CFU/ml

CC1(C)S[C@@H]2[C@H](/N=C/N3CCCCCC3)C(=O)N2[C@H]1C(=O)O [Mecillinam, mecillinam]
Bacterial count [1, 4]: 7.47 Log CFU/ml
Bacterial count [1, 5]: 8.23 Log CFU/ml
Bacterial count [1, 6]: 9.1 Log CFU/ml
Bacterial count [1, 10]: 7.95 Log CFU/ml
Bacterial count [1, 11]: 8.33 Log CFU/ml
Bacterial count [1, 12]: 8.90 Log CFU/ml
Bacterial count [1, 13]: 8.23 Log CFU/ml
Bacterial count [1, 14]: 8.74 Log CFU/ml
Bacterial count [1, 15]: 9.47 Log CFU/ml
Bacterial count [1, 16]: 8.23 Log CFU/ml
Bacterial count [1, 17]: 8.74 Log CFU/ml
Bacterial count [1, 18]: 9.47 Log CFU/ml
antibacterial activity (growth in presence of drug alone) ([1]; Table 2): no antibacterial activity
Bacterial count [2, 7]: 7.74 Log CFU/ml
Bacterial count [2, 8]: 8.69 Log CFU/ml
Bacterial count [2, 9]: 8.89 Log CFU/ml
Bacterial count [2, 19]: 8.39 Log CFU/ml
Bacterial count [2, 20]: 8.60 Log CFU/ml
Bacterial count [2, 21]: 8.90 Log CFU/ml
MIC ([3]; ATCC700603, agent used alone, read-out: MIC value when used alone): > 64 µg/mL

C[C@@H](O)[C@H]1C(=O)N2C(C(=O)O)=C(SCCN=CN)C[C@H]12 [Imipenem, imipenem]
Bacterial count [1, 4]: 5.32 Log CFU/ml
Bacterial count [1, 5]: 2.6 Log CFU/ml
Bacterial count [1, 6]: 2.0 Log CFU/ml
Bacterial count [1, 10]: 4.87 Log CFU/ml
Bacterial count [1, 11]: 3.39 Log CFU/ml
Bacterial count [1, 12]: 2.84 Log CFU/ml
Bacterial count [1, 13]: 5.32 Log CFU/ml
Bacterial count [1, 14]: 3.84 Log CFU/ml
Bacterial count [1, 15]: 2.32 Log CFU/ml
Bacterial count [1, 16]: 5.32 Log CFU/ml
Bacterial count [1, 17]: 3.84 Log CFU/ml
Bacterial count [1, 18]: 2.32 Log CFU/ml
Bacterial count [2, 7]: 5.4 Log CFU/ml
Bacterial count [2, 8]: 3.9 Log CFU/ml
Bacterial count [2, 9]: 3.8 Log CFU/ml
Bacterial count [2, 19]: 6.37 Log CFU/ml
Bacterial count [2, 20]: 5.69 Log CFU/ml
Bacterial count [2, 21]: 6.60 Log CFU/ml

COCC1=C(C(=O)O)N2C(=O)[C@@H](NC(=O)/C(=N\OC)c3csc(N)n3)[C@H]2SC1 [Cefpodoxime (2 mcg/ml), cefpodoxime]
Bacterial count [1, 13]: 8.54 Log CFU/ml
Bacterial count [1, 14]: 9 Log CFU/ml
Bacterial count [1, 15]: 9 Log CFU/ml

C=CC1=C(C(=O)O)N2C(=O)[C@@H](NC(=O)/C(=N\OCC(=O)O)c3csc(N)n3)[C@H]2SC1 [Cefixime (2 mcg/ml), cefixime]
Bacterial count [1, 10]: 8.11 Log CFU/ml
Bacterial count [1, 11]: 8.30 Log CFU/ml
Bacterial count [1, 12]: 9 Log CFU/ml
Bacterial count [2, 19]: 8.16 Log CFU/ml
Bacterial count [2, 20]: 8.47 Log CFU/ml
Bacterial count [2, 21]: 8.84 Log CFU/ml
